Assay results reported in patent US20060166901A1, “Compositions comprising O-acetylsalicyl derivatives of aminocarbohydrates and amino acids” (priority 2005, published 2006).

How the values were obtained:
[1] = patients, recent studies; cited from earlier work
[2] = system: osteoarthritis of both knees; assay: Oral administration to a subject with osteoarthritis of both knees, relief of knee pain and adverse reactions; format: in vivo, human; conditions: earlier treatment
Description: The subject took an oral dose of 100 mg N—(O-acetylsalicyl)-L-tyrosine ethyl ester.
Subject, weight 90 kg, had 4 year history of osteoarthritis of both knees which was confirmed by X-ray and MRI showing diminished articular space. Symptoms of pain upon walking and at rest, as well as tenderness to palpation, had been consistently present, varying in intensity from moderate to severe.
[…] […] The subject did intensive physical activities during the next 10 hours that consisted of farming manual labor that included climbing up and down the banks of a pond to cut off cattail weeds at root level, and manually carrying stalks up the pond bank to level ground. Other physical exertions included numerous mounting and demounting from a farm tractor that pulled a trailer containing cattail weeds to dumping sites.

[3] = nonsteroidal anti-inflammatory agents

Structure (SMILES) | rates of heart attack (cardiac arrest) versus the control group [1] | relief of osteoarthritis symptoms (subject's history) [2, 3] | further results
Cc1ccc(-c2cc(C(F)(F)F)nn2-c2ccc(S(N)(=O)=O)cc2)cc1 [celecoxib] | higher rates of heart attack |  | 
CC(C)Cc1ccc(C(C)C(=O)O)cc1 (centres unmarked) [ibuprofen] |  | had not been relieved | 
COc1ccc2cc([C@H](C)C(=O)O)ccc2c1 [naproxen] |  | had not been relieved | 
C[C@]12C=CC(=O)C=C1CC[C@@H]1[C@@H]2C(=O)C[C@@]2(C)[C@H]1CC[C@]2(O)C(=O)CO [prednisone] |  |  | relief of osteoarthritis symptoms (subject's history) ([2]; oral, 10-30 mg daily): relieved incompletely
CS(=O)(=O)c1ccc(C2=C(c3ccccc3)C(=O)OC2)cc1 [rofecoxib, Rofecoxib] | higher rates of heart attack |  | 
